Results on three compounds are retold here after patent US8658644B2, “Pyridazine derivatives, processes for their preparation and their use as fungicides” (Syngenta Crop Protection, LLC, priority 2011, dated 2014).

Broadly, the melting point is the temperature, or range, at which the solid turns liquid.

Each structure is given as a SMILES string. A value given as a limit tells only on which side of the number the result lay.

In data set [1] the test system is Mycosphaerella graminicola (Septoria tritici). Kind of data set: Mycosphaerella graminicola (Septoria tritici) / wheat / curative. The data set is classed as in vivo. The settings on record: Zymoseptoria tritici, wheat plants cv. Riband, treated 5 days after inoculation, leaf area covered by disease 11 to 14 days after application, read-out: inhibited fungal infestation. Here is the method:
Mycosphaerella graminicola (Septoria tritici)/Wheat/Curative (Action Against Septoria Leaf Spot on Wheat) 2-week old wheat plants cv. Riband are inoculated by spraying them with a spore suspension. After an incubation period of 2 days at 22° C./21° C. (day/night) and 95% rh, the test plants are kept at 22° C./21° C. (day/night) and 70% rh in a climate chamber. The inoculated test plants are treated with the formulated test compound in a spray chamber 5 days after inoculation. The percentage leaf area covered by disease is assessed when an appropriate level of disease appears on untreated check plants (11 to 14 days after application).

Data set [2] has as its system Pyrenophora teres (Helminthosporium teres). Kind of data set: Pyrenophora teres (Helminthosporium teres) / barley / preventative. To be noted: barley plants cv. Regina, inoculated 2 days after application, leaf area covered by disease 5 to 7 days after application, read-out: inhibited fungal infestation. In kind it is in vivo. As for the experimental part:
Pyrenophora teres (Helminthosporium teres)/Barley/Preventative (Action Against Net Blotch on Barley) 1-week old barley plants cv. Regina were treated with the formulated test compound in a spray chamber. The test plants were inoculated by spraying them with a spore suspension 2 days after application. The inoculated test plants were incubated at 20° C. and 95% rh and the percentage leaf area covered by disease was assessed when an appropriate level of disease appears on untreated check plants (5 to 7 days after application).

The test system of data set [3] is Botryotinia fuckeliana (Botrytis cinerea). Kind of data set: Botryotinia fuckeliana (Botrytis cinerea) / tomato / preventative. The data set is classed as in vivo. The settings on record: tomato plants cv. Roter Gnom, inoculated two days after application, leaf area covered by disease 5 to 6 days after application, read-out: inhibited fungal infestation. Here is the method:
Botryotinia fuckeliana (Botrytis cinerea)/Tomato/Preventative (Action Against Botrytis on Tomato) 4-week old tomato plants cv. Roter Gnom were treated with the formulated test compound in a spray chamber. The test plants were inoculated by spraying them with a spore suspension two days after application. The inoculated test plants were incubated at 20° C. and 95% rh in a greenhouse and the percentage leaf area covered by disease is assessed when an appropriate level of disease appears on untreated check plants (5 to 6 days after application).

The test system of data set [4] is Mycosphaerella graminicola (Septoria tritici). Kind of data set: Mycosphaerella graminicola (Septoria tritici) / wheat / preventive. The settings on record: Zymoseptoria tritici, wheat plants cv. Riband, inoculated one day after application, leaf area covered by disease 16 to 19 days after application, read-out: inhibited fungal infestation. In kind it is in vivo. Here is the method: Mycosphaerella graminicola (Septoria tritici)/Wheat/Preventive (Action Against Septoria Leaf Spot on Wheat) 2-week old wheat plants cv. Riband were treated with the formulated test compound in a spray chamber. The test plants were inoculated by spraying a spore suspension on them one day after application. After an incubation period of 1 day at 22° C./21° C. (day/night) and 95% rh, the test plants were kept at 22° C./21° C. (day/night) and 70% rh in a greenhouse. The percentage leaf area covered by disease is assessed when an appropriate level of disease appears on untreated check plants (16 to 19 days after application).

The next data set concerns Puccinia recondita. Kind of data set: Puccinia recondita / wheat / preventative. In kind it is in vivo. The settings on record: wheat plants cv. Arina, inoculated one day after application, leaf area covered by disease 12 to 14 days after application, read-out: inhibited fungal infestation. As for the experimental part:
Puccinia recondita/Wheat/Preventative (Action Against Brown Rust on Wheat) 2-week old wheat plants cv. Arina were treated with the formulated test compound in a spray chamber. The test plants were inoculated by spraying them with a spore suspension one day after application. After an incubation period of 1 day at 20° C. and 95% rh, the test plants were kept at 20° C./18° C. (day/night) and 60% rh in a greenhouse. The percentage leaf area covered by disease was assessed when an appropriate level of disease appears on untreated check plants (12 to 14 days after application).

In data set [5] the test system is Erysiphe necator (Uncinula necator). Kind of data set: Erysiphe necator (Uncinula necator) / grape / preventative. The data set is classed as in vivo. The settings on record: grape seedlings cv. Gutedel, inoculated 1 day after application, leaf area covered by disease 7 to 9 days after application, read-out: inhibited fungal infestation. As for the experimental part: Erysiphe necator (Uncinula necator)/Grape/Preventative (Action Against Powdery Mildew on Grape) 5-week old grape seedlings cv. Gutedel were treated with the formulated test compound in a spray chamber. The test plants are inoculated by shaking plants infected with grape powdery mildew above them 1 day after application. The inoculated test plants were incubated at 24/22° C. (day/night) and 70% rh under a light regime of 14/10 h (light/dark) and the percentage leaf area covered by disease was assessed when an appropriate level of disease appears on untreated check plants (7 to 9 days after application).

The subject of a further data set is Alternaria Solani. Kind of data set: Alternaria solani / tomato / preventative. To be noted: tomato plants cv. Roter Gnom, inoculated two days after application, leaf area covered by disease 5 to 7 days after application, read-out: inhibited fungal infestation. The data set is classed as in vivo. Here is the method: Alternaria Solani/Tomato/Preventative (Action Against Alternaria on Tomato) 4-week old tomato plants cv. Roter Gnom were treated with the formulated test compound in a spray chamber. The test plants were inoculated by spraying them with a spore suspension two days after application. The inoculated test plants were incubated at 22/18° C. (day/night) and 95% rh in a greenhouse and the percentage leaf area covered by disease was assessed when an appropriate level of disease appears on untreated check plants (5 to 7 days after application).

The test system of data set [6] is Magnaporthe grisea (Pyricularia oryzae). Kind of data set: whole plant or invertebrate. In kind it is in vivo. To be noted: read-out: inhibited fungal infestation.

`C#Cc1ccc(-c2c(C)n[nH]c(=O)c2-c2c(F)cc(F)cc2F)cc1` [Compound 1, 5-(4-ethynylphenyl)-6-methyl-4-(2,4,6-trifluorophenyl)-2H-pyridazin-3-one]: the melting point was 252 to 254 °C.
`C#Cc1ccc(-c2c(C)nnc(Cl)c2-c2c(F)cc(F)cc2F)cc1` [Compound 2, 3-chloro-5-(4-ethynylphenyl)-6-methyl-4-(2,4,6-trifluorophenyl)pyridazine] came in with a melting point of 174 to 175 °C. In data set [1], the inhibition at 200 ppm was at least 80%. Besides, the inhibition at 200 ppm in data set [2] was at least 80%. The inhibition at 200 ppm in data set [3] was at least 80%. In data set [4], the inhibition at 200 ppm is at least 80%. The inhibition at 200 ppm in the data set on Puccinia recondita is at least 80%. Further, in [5], the inhibition at 200 ppm was at least 80%. In addition, in the data set with Alternaria Solani, the inhibition at 200 ppm was at least 80%. The inhibition at 200 ppm in [6] was at least 80%.
On to `C#Cc1ccc(-c2c(C)nnc(OC)c2-c2c(F)cc(OC)cc2F)cc1` [Compound 4, 4-(2,6-difluoro-4-methoxyphenyl)-5-(4-ethynylphenyl)-3-methoxy-6-methylpyridazine], for which the melting point is 192 to 193 °C. Also, in data set [1], the inhibition at 200 ppm was at least 80%. Moreover, the inhibition at 200 ppm in data set [2] is at least 80%. The inhibition at 200 ppm in [3] is at least 80%. In data set [4], the inhibition at 200 ppm is at least 80%. In the data set on Alternaria Solani, the inhibition at 200 ppm is at least 80%. Besides, the inhibition at 200 ppm in data set [6] is at least 80%.
